# In publication PMC11862924, “Phenylpyrazoles as Inhibitors of the m^6A RNA-Binding Protein YTHDF2” (JACS Au, 2025):
# Entries after “also recorded” stand apart in the source; their conditions may differ.
# Key:
# JAR = experiment: CCK-8 proliferation assay, JAR; type: cell-based; settings: Homo sapiens; CCK-8 kit assay, triplicates, 72 h; read-out: Anti-proliferation activity against cancer cells (IC50), JAR
# Procedure: (§1) The JAR, K562, HCT116, and MOLM13 cells were seeded in 96-well plates (3000 cells/well). After being cultured overnight, compounds were added together with the DMSO treatment (0.1%) as a control. After 72 h, CCK-8 solution (Vazyme, A311) was added, and the cells were incubated at 37 °C for 4 h. The absorbance was measured at 450 nm using a plate reader (TECAN Spark).
# HCT116 = experiment: CCK-8 proliferation assay, HCT116; type: cell-based; settings: Homo sapiens, HCT-116; CCK-8 kit assay, triplicates, 72 h; read-out: Anti-proliferation activity against cancer cells (IC50), HCT116
# Procedure: as §1
# YTHDF2 [1] = molecular target: T1, YTHDF2 (Homo sapiens, UniProt Q9Y5A9); experiment: nanoDSF thermal shift assay; type: binding; settings: for ΔTm at 5 µM: 5 μM compound; for ΔTm at 10 µM: 10 μM compound; for ΔTm at 25 µM: 25 μM compound
# T1 construct: A YTHDF2 YTH domain construct (residues 383–553) was subcloned to a pOPIN plasmid; made in house; host or cells: Escherichia coli BL21(DE3)
# T1 sequence (Q9Y5A9 383-553): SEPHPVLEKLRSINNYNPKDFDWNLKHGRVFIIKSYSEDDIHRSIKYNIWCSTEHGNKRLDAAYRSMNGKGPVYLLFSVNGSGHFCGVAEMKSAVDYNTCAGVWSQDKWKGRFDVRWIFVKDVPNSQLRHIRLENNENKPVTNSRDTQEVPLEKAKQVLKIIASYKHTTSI
# Procedure: NanoDSF was measured on a NanoTemper instrument (Prometheus NT.48). YTHDF2 protein was used at a concentration of 5 μM and incubated with 50, 25, 10, and 5 μM compound in buffer (100 mM KPi, pH 7.0, 250 mM NaCl, 10% Glycerol) for 50 min, in which 0.1% DMSO was used as the reference. The heat rate was set to 1 °C per minute, measured in a range between 20 and 90 °C.
# YTHDF2 YTH domain = molecular target: T2, YTHDF2 YTH domain (Homo sapiens, UniProt Q9Y5A9); experiment: AlphaScreen assay; settings: for inhibition at 100 μM in AlphaScreen: 100 μM compound; for inhibitory IC50 in AlphaScreen (in words): Figures S3 and S4
# T2 sequence (Q9Y5A9 383-553): T1 sequence (Q9Y5A9 383-553)
# Procedure: Initially, the YTHDF2 YTH domain at different concentrations (0–2500 nM) was incubated with varied concentrations of RNA probes (5’-Bi-CGAm6ACUGUC–3′, IDT company) (5, 25, 50, and 100 nM) in 25 mM Hepes (pH 7.5), 100 mM NaCl, and 0.1% BSA to probe the optimal ratio between protein and RNA before the detection signal reached saturation. The AlphaScreen Histidine Detection Kit (Nickel Chelate) (PerkinElmer) 6760619 M and white 384-well Optiplates (PerkinElmer) were used. Anti-His receptor beads (PerkinElmer) (final concentration: 20 μg/mL) and streptavidin donor beads (final concentration: 20 μg/mL) were first added. The reaction mixture was then incubated at room temperature in a dark environment for 1 h to reach equilibrium. The optical signal was detected using a Tecan plate reader.
# The inhibitory activities of the phenylpyrazoles (at 100 µM) against YTHDF2 binders
# in the amplified luminescent proximity homogeneous assay (AlphaScreen).
# phenylpyrazoles featuring a 2 -hydroxybenzoyl moiety R1 (blue) and a 4 -carboxyphenyl moiety
# represent average values ± s.d.
# [2] = MTT cytotoxicity assay, K562; type: cell-based; settings: human, K562 cells, triplicates, read-out: Cytotoxicity against cancer cells (IC50), K562
# Procedure: (§2) JAR, K562, and HCT116 cells were seeded in 96-well plates (3500 cells/well) and incubated for 8 h. The medium with different concentrations of compounds (100, 33.3, 11.1, 3.7, 1.2, and 0.4 μM) was added to the 96-well plates. Data were normalized to the medium with 0.1% DMSO. After incubation for 72 h, MTT solution (5 mg/mL, 20 μL) was added per well in a dark environment and incubated for 4 h. After the medium was discarded, DMSO (150 μL) was added per well, and the absorbance was measured at 492 nm by a plate reader (TECAN Spark).
# YTHDF2 [3] = molecular target: T1, YTHDF2; experiment: Electrophoretic mobility shift assay (EMSA); type: binding; settings: for inhibition of the YTHDF2–m6A RNA interaction in EMSA at 100 μM (in words): 100 μM compound, 250 nM YTHDF2, FAM-labeled m6A RNA; for concentration-dependent inhibition of YTHDF2–m6A RNA complex formation in EMSA (in words): 3.1–100 μM compound, 250 nM YTHDF2, 20 nM FAM-labelled m6A RNA
# Procedure: Compounds with different concentrations (3.1–100 μM) were incubated with 250 nM YTH-domain and 20 nM FAM-17mer-RNA in a buffer containing 20 mM HEPES, pH 8.2, 50 mM NaCl, 0.05% Triton X-100, and 5% v/v glycerol for 20 min at 4 °C. […] Gel imaging was performed in ChemiDoc MP (Bio-Rad), and Cy2/Alexa488 fluorescence was detected with a 1-min exposure time. Quantification of the gel image was performed by ImageJ.
# [4] = MTT cytotoxicity assay, JAR; type: cell-based; settings: human, JAR cells, triplicates, read-out: Cytotoxicity against cancer cells (IC50), JAR
# Procedure: as §2
# K562 = experiment: CCK-8 proliferation assay, K562; type: cell-based; settings: Homo sapiens, CCK-8 kit assay, triplicates, 72 h, read-out: Anti-proliferation activity against cancer cells (IC50), K562
# Procedure: as §1
# [5] = MTT cytotoxicity assay, HCT116; type: cell-based; settings: human, HCT116 cells, triplicates, read-out: Cytotoxicity against cancer cells (IC50), HCT116
# Procedure: as §2
# [6] = molecular target: T3, YTHDF2 (residues 383–553) (Homo sapiens, UniProt Q9Y5A9); experiment: Fluorescence polarization (FP) assay, YTHDF2–m6A RNA interaction; type: binding; settings: 100 μM compound; YTHDF2 (residues 383–553, 20 nM), FAM-labeled m6A RNA probe 5 nM; average ± SD
# T3 construct: A YTHDF2 YTH domain construct (residues 383–553) was subcloned to a pOPIN plasmid; made in house; host or cells: Escherichia coli BL21(DE3)
# T3 sequence (Q9Y5A9 383-553): T1 sequence (Q9Y5A9 383-553)
# Procedure: The FP assay was performed in 384-well black plates (Corning no. 4514) with a total reaction volume of 15 μL. The final concentrations of protein (YTHDF2) and RNA were […], respectively, in a buffer containing 20 mM HEPES/KOH pH 7.5, 50 mM NaCl, 0.005% Tween 20, and 1 mM GSH (DTT). Compounds were incubated with protein, added FAM-m^6A RNA probe ([…](m6)ACUGUG) (purchased from IDT), and incubated at 4 °C for 30 min. The fluorescence polarization was measured using a plate reader (TECAN Spark) under an excitation wavelength of 485 nm and an emission wavelength of 535 nm with a bandwidth of 20 nm. […] The data were determined using GraphPad Prism 9.
SMILES,IC50 (HCT116),ΔTm at 5 µM (YTHDF2 [1]),ΔTm at 10 µM (YTHDF2 [1]),ΔTm at 25 µM (YTHDF2 [1]),inhibition at 100 μM in AlphaScreen (YTHDF2 YTH domain),inhibitory IC50 in AlphaScreen (in words) (YTHDF2 YTH domain),concentration-dependent inhibition of YTHDF2–m6A RNA complex formation in EMSA (in words) (YTHDF2 [3]),IC50 (K562),inhibition at 100 µM [6],IC50 (JAR),IC50 at 72 h [2],inhibition of the YTHDF2–m6A RNA interaction in EMSA at 100 μM (in words) (YTHDF2 [3]),IC50 at 72 h [4],IC50 at 72 h [5]
O=C(O)c1ccc(-n2cc(C(=O)c3cc(F)ccc3O)cn2)cc1 [CK-56],> 50 µM,,,,,,,> 50 µM,37.4 ± 3.9%,> 50 µM,23.9 ± 7.5 µM,potent inhibition,41.2 ± 14.1 µM,19.3 ± 2.5 µM
O=C(O)c1ccc(-n2cc(C(=O)c3cc([N+](=O)[O-])ccc3O)cn2)cc1 [CK-62],> 50 µM,0.3 ± 0.05 °C,0.5 ± 0.14 °C,0.48 ± 0.3 °C,,,dose-dependently inhibited,> 50 µM,34.4 ± 7.1%,> 50 µM,> 50 µM,potent inhibition; also recorded: potently inhibited,42.6 ± 18.5 µM,> 50 µM
CCc1ccc(O)c(C(=O)c2cnn(-c3ccc(C(=O)O)cc3)c2)c1 [CK-65],> 50 µM,,,,,,,43.9 ± 12 µM,35.4 ± 6.5%,45.6 ± 3.9 µM,> 50 µM,,> 50 µM,> 50 µM
O=C(O)c1ccc(-n2cc(C(=O)c3ccc(Br)cc3O)cn2)cc1 [CK-70],> 50 µM,0.63 ± 0.08 °C,1.42 ± 0.36 °C,2.42 ± 0.24 °C,,,dose-dependently inhibited,45.5 ± 6.2 µM,17.4 ± 10.5%,48.5 ± 3.9 µM,42.1 ± 14.6 µM,potent inhibition; also recorded: potently inhibited,> 50 µM,36.4 ± 2.8 µM
COc1cccc(O)c1C(=O)c1cnn(-c2ccc(C(=O)O)cc2)c1 [CK-85],> 50 µM,,,,,,,> 50 µM,64.7 ± 8.4%,46.2 ± 2.6 µM,> 50 µM,,> 50 µM,> 50 µM
O=C(O)c1ccc(-n2cc(C(=O)c3ccc(F)cc3O)cn2)cc1 [CK-89],> 50 µM,,,,,,,> 50 µM,44.4 ± 1.8%,> 50 µM,43.8 ± 22.7 µM,,> 50 µM,32.8 ± 7.5 µM

# Further lines, with some results ahead:
IC50 (HCT116),ΔTm at 5 µM (YTHDF2 [1]),ΔTm at 10 µM (YTHDF2 [1]),ΔTm at 25 µM (YTHDF2 [1]),inhibition at 100 μM in AlphaScreen (YTHDF2 YTH domain),inhibitory IC50 in AlphaScreen (in words) (YTHDF2 YTH domain),concentration-dependent inhibition of YTHDF2–m6A RNA complex formation in EMSA (in words) (YTHDF2 [3]),IC50 (K562),inhibition at 100 µM [6],SMILES,IC50 (JAR),IC50 at 72 h [2],inhibition of the YTHDF2–m6A RNA interaction in EMSA at 100 μM (in words) (YTHDF2 [3]),IC50 at 72 h [4],IC50 at 72 h [5]
> 50 µM,0.15 ± 0.14 °C,0.43 ± 0.11 °C,1.48 ± 0.52 °C,> 80%,low double-digit micromolar,dose-dependently inhibited,31.2 ± 8.9 µM,41.8 ± 3.2%,CC(C)c1ccc(O)c(C(=O)c2cnn(-c3ccc(C(=O)O)cc3)c2)c1 [CK-55],> 50 µM,32.4 ± 22.1 µM,potent inhibition; also recorded: potently inhibited,44.4 ± 13.5 µM,49.5 ± 8.5 µM
47.2 ± 8.7 µM,,,,> 80%,low double-digit micromolar,,38.8 ± 3.7 µM,63.2 ± 6.9%,COc1ccc(O)c(C(=O)c2cnn(-c3ccc(C(=O)O)cc3)c2)c1 [CK-66],47.3 ± 6.3 µM,> 50 µM,,> 50 µM,> 50 µM
41.6 ± 8.2 µM,0.47 ± 0.11 °C,1.35 ± 0.66 °C,2.27 ± 0.26 °C,> 80%,low double-digit micromolar,dose-dependently inhibited,33.4 ± 3.3 µM,41.1 ± 7.7%,O=C(O)c1ccc(-n2cc(C(=O)c3cc(Cl)ccc3O)cn2)cc1 [CK-67],38.5 ± 9.2 µM,34.9 ± 13.4 µM,potent inhibition; also recorded: potently inhibited,> 50 µM,48.5 ± 4.9 µM
> 50 µM,,,,,,,> 50 µM,26.3 ± 6.8%,Cc1ccc(C(=O)c2cnn(-c3ccc(C(=O)O)cc3)c2)c(O)c1 [CK-73],> 50 µM,> 50 µM,,> 50 µM,> 50 µM
> 50 µM,,,,,,,> 50 µM,54.6 ± 8.4%,O=C(O)c1ccc(-n2cc(C(=O)c3cc(F)cc(F)c3O)cn2)cc1 [CK-86],> 50 µM,> 50 µM,,> 50 µM,> 50 µM
> 50 µM,,,,,,,48.2 ± 6.3 µM,28.8 ± 0.1%,O=C(O)c1ccc(-n2cc(C(=O)c3ccc(Cl)cc3O)cn2)cc1 [CK-88],39 ± 3.2 µM,43.2 ± 10.4 µM,,25 ± 3.6 µM,> 50 µM
> 50 µM,,,,,,,> 50 µM,52.2 ± 10.1%,O=C(O)c1ccc(-n2cc(C(=O)c3cccc(Cl)c3O)cn2)cc1 [CK-96],> 50 µM,25.4 ± 7.8 µM,,40.2 ± 12.7 µM,20.6 ± 8.1 µM
